Data taken from ChEMBL document CHEMBL4507290 (2021).

Columns and labels:
[1] = target: Mitogen-activated protein kinase kinase kinase 9 (Homo sapiens) (UniProt P80192); details: Compound concentration 1000.0 nM
[2] = target: Histamine H4 receptor (Homo sapiens) (UniProt Q9H3N8); details: Compound concentration 10.0 uM
[3] = target: Eukaryotic translation initiation factor 2-alpha kinase 1 (Homo sapiens) (UniProt Q9BQI3); details: Compound concentration 1000.0 nM
[4] = tested on: Phosphatidylinositol 4,5-bisphosphate 3-kinase catalytic subunit alpha isoform (Homo sapiens), P42336 [E542K]; details: Compound concentration 1000.0 nM
[5] = target: RAC-beta serine/threonine-protein kinase (Homo sapiens) (UniProt P31751); details: Compound concentration 1000.0 nM
[6] = target: Tyrosine-protein kinase JAK2 (Homo sapiens) (UniProt O60674); details: Compound concentration 1000.0 nM
[7] = tested on: Epidermal growth factor receptor (Homo sapiens), P00533 [UNDEFINED MUTATION]; details: Compound concentration 1000.0 nM
[8] = target: Serine/threonine-protein kinase WNK1 (Homo sapiens) (UniProt Q9H4A3); details: Compound concentration 1000.0 nM
[9] = target: Citron Rho-interacting kinase (Homo sapiens) (UniProt O14578); details: Compound concentration 1000.0 nM
[10] = target: Protein kinase C iota type (Homo sapiens) (UniProt P41743); details: Compound concentration 1000.0 nM
Protein kinase C iota type (Homo sapiens), sequence (P41743 whole entry): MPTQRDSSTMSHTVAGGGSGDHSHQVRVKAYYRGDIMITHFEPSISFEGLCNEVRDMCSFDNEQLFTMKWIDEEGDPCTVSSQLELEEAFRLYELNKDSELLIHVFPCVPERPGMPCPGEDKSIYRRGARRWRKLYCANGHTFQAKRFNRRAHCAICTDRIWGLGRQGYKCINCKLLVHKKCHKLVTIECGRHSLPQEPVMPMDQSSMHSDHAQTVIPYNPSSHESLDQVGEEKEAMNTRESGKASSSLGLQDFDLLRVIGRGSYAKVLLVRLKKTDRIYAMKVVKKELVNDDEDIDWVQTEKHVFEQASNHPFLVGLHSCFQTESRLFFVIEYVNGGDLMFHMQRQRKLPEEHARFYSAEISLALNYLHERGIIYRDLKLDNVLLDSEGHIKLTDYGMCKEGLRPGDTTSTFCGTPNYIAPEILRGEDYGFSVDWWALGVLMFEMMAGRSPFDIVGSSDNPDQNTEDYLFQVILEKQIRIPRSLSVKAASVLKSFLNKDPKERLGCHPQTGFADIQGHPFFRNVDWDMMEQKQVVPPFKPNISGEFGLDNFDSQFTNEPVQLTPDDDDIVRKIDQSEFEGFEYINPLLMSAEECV

[11] = target: Activin receptor type-1B (Homo sapiens) (UniProt P36896); details: Compound concentration 1000.0 nM
[12] = target: Serine/threonine-protein kinase ULK1 (Homo sapiens) (UniProt O75385); details: Compound concentration 1000.0 nM
[13] = target: SRSF protein kinase 2 (Homo sapiens) (UniProt P78362); details: Compound concentration 1000.0 nM
[14] = target: Serine/threonine-protein kinase NIM1 (Homo sapiens) (UniProt Q8IY84); details: Compound concentration 1000.0 nM
[15] = target: Serine/threonine-protein kinase 16 (Homo sapiens) (UniProt O75716); details: Compound concentration 1000.0 nM
Serine/threonine-protein kinase 16 (Homo sapiens), sequence (O75716 whole entry): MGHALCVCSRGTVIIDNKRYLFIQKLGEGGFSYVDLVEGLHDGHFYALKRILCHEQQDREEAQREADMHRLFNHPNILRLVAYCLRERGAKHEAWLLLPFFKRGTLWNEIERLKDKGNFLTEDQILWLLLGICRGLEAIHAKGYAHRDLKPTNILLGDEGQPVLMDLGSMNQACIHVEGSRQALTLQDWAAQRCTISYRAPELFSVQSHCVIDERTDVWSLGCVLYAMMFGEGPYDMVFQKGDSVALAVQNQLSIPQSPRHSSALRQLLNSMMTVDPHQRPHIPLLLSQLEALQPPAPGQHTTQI

[16] = target: Cyclin-G-associated kinase (Homo sapiens) (UniProt O14976); details: Compound concentration 1000.0 nM
[17] = target: Cyclin-dependent kinase-like 2 (Homo sapiens) (UniProt Q92772); details: Compound concentration 1000.0 nM
[18] = target: Tyrosine-protein kinase ABL2 (Homo sapiens) (UniProt P42684); details: Compound concentration 1000.0 nM
[19] = tested on: Phosphatidylinositol 4,5-bisphosphate 3-kinase catalytic subunit alpha isoform (Homo sapiens), P42336 [M1043I]; details: Compound concentration 1000.0 nM
[20] = target: Non-receptor tyrosine-protein kinase TYK2 (Homo sapiens) (UniProt P29597); details: Compound concentration 1000.0 nM
[21] = target: Mitogen-activated protein kinase 11 (Homo sapiens) (UniProt Q15759); details: Compound concentration 1000.0 nM
[22] = target: Protein kinase C eta type (Homo sapiens) (UniProt P24723); details: Compound concentration 1000.0 nM
[23] = target: Receptor-interacting serine/threonine-protein kinase 2 (Homo sapiens) (UniProt O43353); details: Compound concentration 1000.0 nM
[24] = target: Dual specificity tyrosine-phosphorylation-regulated kinase 2 (Homo sapiens) (UniProt Q92630); details: Compound concentration 1000.0 nM
[25] = target: Mitogen-activated protein kinase kinase kinase kinase 4 (Homo sapiens) (UniProt O95819); details: Compound concentration 1000.0 nM
[26] = target: 3-phosphoinositide-dependent protein kinase 1 (Homo sapiens) (UniProt O15530); details: Compound concentration 1000.0 nM
[27] = target: Vascular endothelial growth factor receptor 3 (Homo sapiens) (UniProt P35916); details: Compound concentration 1000.0 nM
Vascular endothelial growth factor receptor 3 (Homo sapiens), sequence (P35916 whole entry): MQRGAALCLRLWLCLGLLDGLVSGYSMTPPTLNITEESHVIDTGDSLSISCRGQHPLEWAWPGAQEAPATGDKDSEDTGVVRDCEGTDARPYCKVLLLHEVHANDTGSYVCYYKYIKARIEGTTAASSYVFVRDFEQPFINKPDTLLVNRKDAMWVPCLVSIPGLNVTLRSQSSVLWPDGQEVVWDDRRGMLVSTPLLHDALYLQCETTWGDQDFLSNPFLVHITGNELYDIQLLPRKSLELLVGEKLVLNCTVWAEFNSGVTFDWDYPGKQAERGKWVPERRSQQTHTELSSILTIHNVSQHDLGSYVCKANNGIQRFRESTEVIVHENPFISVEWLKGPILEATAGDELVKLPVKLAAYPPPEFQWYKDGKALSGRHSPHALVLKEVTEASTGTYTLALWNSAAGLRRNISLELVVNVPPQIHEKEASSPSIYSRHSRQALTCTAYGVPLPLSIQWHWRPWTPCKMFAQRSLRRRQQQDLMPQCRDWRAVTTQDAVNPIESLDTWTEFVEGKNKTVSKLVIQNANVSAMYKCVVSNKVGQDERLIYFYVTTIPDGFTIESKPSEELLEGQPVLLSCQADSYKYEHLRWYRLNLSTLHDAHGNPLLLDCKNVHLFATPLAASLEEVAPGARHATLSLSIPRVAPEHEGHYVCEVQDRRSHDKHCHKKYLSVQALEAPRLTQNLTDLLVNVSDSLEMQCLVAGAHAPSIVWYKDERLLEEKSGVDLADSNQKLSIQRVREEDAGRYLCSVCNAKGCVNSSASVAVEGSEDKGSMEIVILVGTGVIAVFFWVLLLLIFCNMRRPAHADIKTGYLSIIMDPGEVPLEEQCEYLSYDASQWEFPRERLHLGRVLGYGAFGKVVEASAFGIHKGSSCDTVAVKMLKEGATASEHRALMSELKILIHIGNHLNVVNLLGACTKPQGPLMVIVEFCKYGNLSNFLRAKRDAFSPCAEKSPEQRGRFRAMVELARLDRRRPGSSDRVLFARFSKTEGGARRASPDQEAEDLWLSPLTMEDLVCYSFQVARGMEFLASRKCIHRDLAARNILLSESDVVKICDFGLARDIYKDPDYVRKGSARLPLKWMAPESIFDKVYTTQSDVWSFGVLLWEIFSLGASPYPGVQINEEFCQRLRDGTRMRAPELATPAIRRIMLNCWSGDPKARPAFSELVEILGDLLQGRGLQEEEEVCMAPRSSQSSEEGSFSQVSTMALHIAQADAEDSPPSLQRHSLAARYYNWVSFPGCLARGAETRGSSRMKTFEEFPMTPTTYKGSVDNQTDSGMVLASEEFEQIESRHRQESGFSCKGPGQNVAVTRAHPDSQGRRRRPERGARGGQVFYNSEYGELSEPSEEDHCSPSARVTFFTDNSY

[28] = target: Serine/threonine-protein kinase WNK3 (Homo sapiens) (UniProt Q9BYP7); details: Compound concentration 1000.0 nM
[29] = target: Epidermal growth factor receptor (Homo sapiens) (UniProt P00533); details: Compound concentration 1000.0 nM
[30] = target: Serine/threonine-protein kinase BRSK1 (Homo sapiens) (UniProt Q8TDC3); details: Compound concentration 1000.0 nM
Serine/threonine-protein kinase BRSK1 (Homo sapiens), sequence (Q8TDC3 whole entry): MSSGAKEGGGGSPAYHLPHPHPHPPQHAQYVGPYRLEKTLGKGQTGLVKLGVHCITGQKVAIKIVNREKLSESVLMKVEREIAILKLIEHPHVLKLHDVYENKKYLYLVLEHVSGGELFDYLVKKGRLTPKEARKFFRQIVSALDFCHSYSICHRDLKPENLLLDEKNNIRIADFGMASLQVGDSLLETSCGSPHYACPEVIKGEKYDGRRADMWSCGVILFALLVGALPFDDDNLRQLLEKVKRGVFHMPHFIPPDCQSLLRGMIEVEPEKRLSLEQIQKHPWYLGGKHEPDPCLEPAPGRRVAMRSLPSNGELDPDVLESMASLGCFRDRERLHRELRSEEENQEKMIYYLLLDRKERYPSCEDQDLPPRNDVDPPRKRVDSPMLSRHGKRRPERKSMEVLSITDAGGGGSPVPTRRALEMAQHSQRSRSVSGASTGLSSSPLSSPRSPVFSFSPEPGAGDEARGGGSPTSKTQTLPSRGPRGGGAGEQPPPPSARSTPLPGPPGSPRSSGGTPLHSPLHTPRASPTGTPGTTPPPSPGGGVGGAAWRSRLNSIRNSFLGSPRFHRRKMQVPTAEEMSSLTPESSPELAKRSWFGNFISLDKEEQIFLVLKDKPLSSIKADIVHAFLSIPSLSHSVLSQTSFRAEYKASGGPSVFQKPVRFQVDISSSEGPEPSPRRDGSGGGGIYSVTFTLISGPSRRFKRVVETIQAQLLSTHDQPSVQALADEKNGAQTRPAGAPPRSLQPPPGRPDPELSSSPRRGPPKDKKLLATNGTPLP

[31] = target: Serine/threonine-protein kinase PLK4 (Homo sapiens) (UniProt O00444); details: Compound concentration 1000.0 nM
[32] = target: Macrophage-stimulating protein receptor (Homo sapiens) (UniProt Q04912); details: Compound concentration 1000.0 nM
[33] = target: Bone morphogenetic protein receptor type-1A (Homo sapiens) (UniProt P36894); details: Compound concentration 1000.0 nM
[34] = target: Calcium/calmodulin-dependent protein kinase kinase 2 (Homo sapiens) (UniProt Q96RR4); details: Compound concentration 1000.0 nM
[35] = target: MAP kinase-interacting serine/threonine-protein kinase 1 (Homo sapiens) (UniProt Q9BUB5); details: Compound concentration 1000.0 nM
[36] = target: Serine/threonine-protein kinase SIK1 (Homo sapiens) (UniProt P57059); details: Compound concentration 1000.0 nM
[37] = target: Casein kinase I isoform gamma-3 (Homo sapiens) (UniProt Q9Y6M4); details: Compound concentration 1000.0 nM
[38] = target: Tyrosine-protein kinase CSK (Homo sapiens) (UniProt P41240); details: Compound concentration 1000.0 nM
[39] = target: Calcium/calmodulin-dependent protein kinase type 1G (Homo sapiens) (UniProt Q96NX5); details: Compound concentration 1000.0 nM
Calcium/calmodulin-dependent protein kinase type 1G (Homo sapiens), sequence (Q96NX5 whole entry): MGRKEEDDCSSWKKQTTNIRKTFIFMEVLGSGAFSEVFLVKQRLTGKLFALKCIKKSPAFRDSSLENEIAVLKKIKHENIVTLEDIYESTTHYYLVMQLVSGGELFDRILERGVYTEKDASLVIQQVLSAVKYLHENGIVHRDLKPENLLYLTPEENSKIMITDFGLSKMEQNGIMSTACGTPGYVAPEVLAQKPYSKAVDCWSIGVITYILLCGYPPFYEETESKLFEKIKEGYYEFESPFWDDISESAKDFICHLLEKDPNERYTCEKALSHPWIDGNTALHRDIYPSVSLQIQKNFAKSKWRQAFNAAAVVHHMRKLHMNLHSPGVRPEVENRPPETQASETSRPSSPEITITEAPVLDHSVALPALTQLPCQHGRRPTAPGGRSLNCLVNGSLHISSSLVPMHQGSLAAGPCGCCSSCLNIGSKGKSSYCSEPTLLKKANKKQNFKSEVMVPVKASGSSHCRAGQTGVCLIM

[40] = target: Serine/threonine-protein kinase MRCK gamma (Homo sapiens) (UniProt Q6DT37); details: Compound concentration 1000.0 nM
[41] = target: Alpha-2B adrenergic receptor (Homo sapiens) (UniProt P18089); details: Compound concentration 10.0 uM
[42] = target: D(3) dopamine receptor (Homo sapiens) (UniProt P35462); details: Compound concentration 10.0 uM
[43] = target: Serine/threonine-protein kinase WNK2 (Homo sapiens) (UniProt Q9Y3S1); details: Compound concentration 1000.0 nM
[44] = target: Ribosomal protein S6 kinase alpha-4 (Homo sapiens) (UniProt O75676); details: Compound concentration 1000.0 nM
Ribosomal protein S6 kinase alpha-4 (Homo sapiens), sequence (O75676 whole entry, looked up): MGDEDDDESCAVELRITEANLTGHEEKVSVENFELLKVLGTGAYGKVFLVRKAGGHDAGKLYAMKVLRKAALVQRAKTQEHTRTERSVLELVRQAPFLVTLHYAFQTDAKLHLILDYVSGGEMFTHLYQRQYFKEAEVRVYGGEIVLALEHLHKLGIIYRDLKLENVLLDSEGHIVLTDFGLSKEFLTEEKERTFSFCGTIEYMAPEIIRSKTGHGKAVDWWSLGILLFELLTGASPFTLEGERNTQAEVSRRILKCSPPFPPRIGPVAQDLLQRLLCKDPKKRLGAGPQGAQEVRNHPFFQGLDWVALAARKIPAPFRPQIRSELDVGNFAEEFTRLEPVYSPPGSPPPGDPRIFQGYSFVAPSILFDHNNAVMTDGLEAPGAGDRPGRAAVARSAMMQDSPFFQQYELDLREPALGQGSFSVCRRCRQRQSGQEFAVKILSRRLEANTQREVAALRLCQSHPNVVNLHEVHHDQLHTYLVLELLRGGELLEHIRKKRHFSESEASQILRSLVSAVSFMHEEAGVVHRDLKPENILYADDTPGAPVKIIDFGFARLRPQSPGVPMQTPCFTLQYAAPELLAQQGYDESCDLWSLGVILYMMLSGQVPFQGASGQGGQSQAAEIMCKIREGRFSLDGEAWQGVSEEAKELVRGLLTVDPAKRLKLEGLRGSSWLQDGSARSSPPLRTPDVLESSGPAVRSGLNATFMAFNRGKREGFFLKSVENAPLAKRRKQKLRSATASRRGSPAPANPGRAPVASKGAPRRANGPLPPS

[45] = target: Serine/threonine-protein kinase MAK (Homo sapiens) (UniProt P20794); details: Compound concentration 1000.0 nM
Serine/threonine-protein kinase MAK (Homo sapiens), sequence (P20794 whole entry): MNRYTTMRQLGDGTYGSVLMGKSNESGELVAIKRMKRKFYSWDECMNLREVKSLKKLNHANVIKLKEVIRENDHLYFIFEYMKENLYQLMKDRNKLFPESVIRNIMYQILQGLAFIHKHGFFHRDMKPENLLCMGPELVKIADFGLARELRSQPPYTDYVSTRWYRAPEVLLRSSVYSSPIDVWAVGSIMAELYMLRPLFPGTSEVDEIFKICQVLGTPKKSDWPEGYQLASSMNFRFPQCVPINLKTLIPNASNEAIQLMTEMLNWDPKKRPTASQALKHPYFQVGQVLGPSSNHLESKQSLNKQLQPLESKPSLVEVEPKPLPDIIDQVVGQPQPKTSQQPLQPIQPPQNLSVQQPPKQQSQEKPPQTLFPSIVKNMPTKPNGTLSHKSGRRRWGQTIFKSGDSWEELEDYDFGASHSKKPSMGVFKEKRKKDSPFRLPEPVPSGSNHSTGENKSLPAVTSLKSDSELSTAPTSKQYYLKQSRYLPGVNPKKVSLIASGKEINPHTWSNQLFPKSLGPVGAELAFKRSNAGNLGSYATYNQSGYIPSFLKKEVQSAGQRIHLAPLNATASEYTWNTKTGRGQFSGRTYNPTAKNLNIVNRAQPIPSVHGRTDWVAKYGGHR

CN([C@@H]1CCc2c(CC(=O)O)c3cc(S(C)(=O)=O)ccc3n2C1)S(=O)(=O)c1ccc(F)cc1
inactive: residual activity [1] 91% | inhibition [2] 16% | residual activity [3] 90% | residual activity [4] 88% | residual activity [5] 92% | residual activity [6] 100% | residual activity [7] 82% | residual activity [8] 95% | residual activity [9] 96% | residual activity [10] 100% | residual activity [11] 99% | residual activity [12] 92% | residual activity [13] 100% | residual activity [14] 100% | residual activity [15] 95% | residual activity [16] 93% | residual activity [17] 100% | residual activity [18] 100% | residual activity [19] 98% | residual activity [20] 83% | residual activity [21] 83% | residual activity [22] 100% | residual activity [23] 100% | residual activity [24] 94% | residual activity [25] 100% | residual activity [26] 100% | residual activity [27] 100% | residual activity [28] 83% | residual activity [29] 100% | residual activity [30] 94% | residual activity [31] 100% | residual activity [32] 94% | residual activity [33] 85% | residual activity [34] 100% | residual activity [35] 86% | residual activity [36] 87% | residual activity [37] 100% | residual activity [38] 99% | residual activity [39] 100% | residual activity [40] 93% | inhibition [41] -2.39% | inhibition [42] -5.72% | residual activity [43] 80% | residual activity [44] 97% | residual activity [45] 65%

CN([C@@H]1CCc2c(CC(=O)O)c3ccccc3n2C1)S(=O)(=O)c1ccc(F)cc1 [MK-7246]
inactive: residual activity [1] 100% | inhibition [2] 25.9% | residual activity [3] 98% | residual activity [4] 86% | residual activity [5] 95% | residual activity [6] 100% | residual activity [7] 100% | residual activity [8] 96% | residual activity [9] 100% | residual activity [10] 100% | residual activity [11] 96% | residual activity [12] 96% | residual activity [13] 100% | residual activity [14] 100% | residual activity [15] 99% | residual activity [16] 100% | residual activity [17] 100% | residual activity [18] 100% | residual activity [19] 100% | residual activity [20] 100% | residual activity [21] 88% | residual activity [22] 100% | residual activity [23] 92% | residual activity [24] 95% | residual activity [25] 100% | residual activity [26] 100% | residual activity [27] 95% | residual activity [28] 86% | residual activity [29] 95% | residual activity [30] 100% | residual activity [31] 100% | residual activity [32] 93% | residual activity [33] 100% | residual activity [34] 100% | residual activity [35] 93% | residual activity [36] 71% | residual activity [37] 100% | residual activity [38] 100% | residual activity [39] 100% | residual activity [40] 100% | inhibition [41] 12.7% | inhibition [42] -4.25% | residual activity [43] 92% | residual activity [44] 96% | residual activity [45] 82%
